The target of series [1] is T1, thromboxane synthetase (Oryctolagus cuniculus, UniProt G1TAZ9).
T1 construct: from tissue; host or cells: rabbit platelets (microsomes)
T1 sequence (G1TAZ9 1-530): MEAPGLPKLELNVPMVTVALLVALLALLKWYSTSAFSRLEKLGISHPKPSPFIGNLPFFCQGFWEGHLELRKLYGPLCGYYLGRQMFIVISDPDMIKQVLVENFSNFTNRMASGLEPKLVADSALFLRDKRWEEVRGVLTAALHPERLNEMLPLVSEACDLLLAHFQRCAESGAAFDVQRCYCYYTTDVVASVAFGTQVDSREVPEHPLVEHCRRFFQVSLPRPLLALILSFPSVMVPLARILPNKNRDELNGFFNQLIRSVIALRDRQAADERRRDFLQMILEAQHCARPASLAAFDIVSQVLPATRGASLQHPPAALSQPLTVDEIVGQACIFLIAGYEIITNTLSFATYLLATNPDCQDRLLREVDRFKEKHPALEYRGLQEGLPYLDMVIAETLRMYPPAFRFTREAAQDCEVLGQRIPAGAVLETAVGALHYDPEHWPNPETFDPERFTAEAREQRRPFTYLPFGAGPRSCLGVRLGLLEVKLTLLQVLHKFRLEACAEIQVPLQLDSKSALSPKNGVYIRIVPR
Nature of the series: Inhibitory potency of imidazole compounds on thromboxane synthetase (conversion of prostaglandin H2 to thromboxane B2 by rabbit platelet microsomes). It is filed as biochemical. The conditions noted are these: 24° C., 1 minute. The protocol:
(1-C^14)-Prostaglandin H2, obtained by the enzymatic biosynthesis with ram seminal vesicle microsomes and (1-C^14)-arachidonic acid, was incubated with rabbit platelet microsomes containing 0.025 μM and 0.5 μM of the test compound at 24° C. for 1 minute. The termination of the reaction and the extraction of a radioactive materials were carried out by the addition of a mixture of ethyl acetate/methanol/0.2 M citric acid (30:4:1 by volume). […] A spot of thromboxane B2 was counted by a packard Radiochromatogram Scanner.

The nature of series [2]: Acute toxicity (LD50), intravenous, mice. The following applies: mouse, in vivo, dd-stain male mice, 7 weeks old, Behrens-Karber method, read-out: median lethal dose (LD50). The procedure:
The median lethal dose (LD50) of N-(7-carboxyheptyl)imidazole and N-(6-methoxycarbonylhexyl)imidazole (known compound) were determined in dd-stain male mice (7 weeks old) by intravenous administration. The LD50 values were calculated according to the Behrens-Karber method.

Series [3] deals with thromboxane synthetase. Put plainly: Inhibitory effect on thromboxane synthetase, general statements. The following applies: in words. It is filed as biochemical.
Series [4] relates to thromboxane synthetase. The conditions noted are these: in words; reported in the literature; cited from earlier work.

Where a name gives a salt, the structure may show the parent alone.

Usually inhibition stands for the change of the read-out against control, counted positive when it falls. High values mean a strong effect, low ones a weak effect. Usually LD50 stands for the dose expected to kill half of the subjects tested.

In series [1], `O=C(O)CCCCCCCCn1ccnc1` [N-(8-carboxyoctyl)imidazole hydrochloride] showed an inhibition at 0.025 µM of 42.2% and an inhibition at 0.5 µM of 90.8%.

In series [1], `O=C(O)CCCCCCCCCn1ccnc1` [N-(9-carboxynonyl)imidazole hydrochloride] came in with an inhibition at 0.025 µM of 20.2% and an inhibition at 0.5 µM of 72.5%.

In series [1], `O=C(O)CCCCCCn1ccnc1` [N-(6-carboxyhexyl)imidazole hydrochloride] had an inhibition at 0.025 µM of 10.1% and an inhibition at 0.5 µM of 76.1%.

For the compound `COC(=O)CCCCCCn1ccnc1` [N-(6-methoxycarbonylhexyl)imidazole, reference compound], in series [1], the inhibition at 0.025 µM is 5.5% and at 0.5 µM the inhibition was 25.7%. For the same compound, the LD50 in series [2] was found to be 140 mg/kg. Also, in series [3], the “inhibitory effect on thromboxane synthetase compared with imidazole or 1-methylimidazole” value is “stronger inhibitory effect” and the “inhibitory effect on thromboxane synthetase, suitability as medication” value is “not completely satisfactory as a practical medication”.

On to `c1c[nH]cn1` [imidazole], for which, in series [4], the “inhibitory action for thromboxane synthetase” value is recorded as “weak”.

With `O=C(O)CCCCCCCn1ccnc1` [1-(7-Carboxyheptyl)imidazole Hydrochloride], in series [1], testing at 0.025 µM gave an inhibition of 31.2% and 0.5 µM produced 89% inhibition.

On to `Cn1ccnc1` [1-methylimidazole], for which the “inhibitory action for thromboxane synthetase” value in series [4] is on record as “weak”.

In series [1], `O=C(O)CCCCCCCCCCCn1ccnc1` [N-(11-carboxyundecyl)imidazole hydrochloride] displayed an inhibition at 0.025 µM of 13.8% and an inhibition at 0.5 µM of 46.8%.

On to `O=C(O)CCCCCCCn1ccnc1` [N-(7-carboxyheptyl)imidazole, 1-(7-Carboxyheptyl)imidazole], for which the LD50 in series [2] was 560 mg/kg.

In series [1], `O=C(O)CCCCCCCCCCn1ccnc1` [N-(10-carboxydecyl)imidazole hydrochloride] displayed an inhibition at 0.025 µM of 9.2% and an inhibition at 0.5 µM of 40.4%.

Source of the values: US4320134A, “Inhibiton of thromboxane synthetase with 1-substituted imidazole compounds” (Ono Pharmaceutical Co., Ltd., priority 1978, dated 1982).
